Publication PMC10820527, “Synthesis, Characterization, and Investigation of Anti-Inflammatory and Cytotoxic Activities of Novel Thiourea Derivatives of Naproxen” (Pharmaceutics, 2023)

Tests used:
HeLa = test: MTT cytotoxicity assay, HeLa; format: cell-based, human; settings: for IC50: mean ± SD
Description: Three cancer cell lines (MDA-MB-231, HCT116 and HeLa; i.e., human breast cancer cells, human colorectal cancer cells, and human cervical cancer cells, respectively), and one non-malignant fibroblast MRC-5 cell line (control) were used in this study. The American Type Cell Collection (ATCC, Manassas, VA, USA) provided all examined cell lines. The cells were grown in a complete medium made up of high-glucose DMEM media supplemented with 10% fetal bovine serum and […] L-glutamine (both from Sigma-Aldrich, USA). The cells were cultured in 25 cc flasks (Thermo Fischer Scientific, Waltham, MA, USA) at 37 °C with 100% humidity in a 5% CO2 atmosphere.
The MTT test was used to assess the cytotoxicity of compounds 1–14 [44]. The cytotoxicity of naproxen was also investigated due to its clinical use and structural similarity. Throughout the exponential development period, cells were taken from culture flasks and counted, and 5 × 10^3 cells/well were planted into 96-well culture plates. Following that, the cell lines were treated with varying doses of the investigated chemicals (1–14), naproxen ([…]), and fresh complete media as a control. All evaluated cells were incubated for 24, 48, and 72 h at 37 °C in an environment containing 5% CO2 and 100% humidity. Following incubation, each well’s culture media was taken out, each well received an addition of MTT solution at a final concentration of 0.5 mg/mL, and the cells were left to incubate for an additional four hours. The MTT solution was then withdrawn carefully, and the formazan crystals were dissolved in DMSO. After shaking the plates for 10 min, absorbance at 595 nm was measured using a multiplate reader (Zenyth 3100, Anthos Labtec Instruments, Salzburg, Austria). All concentrations of the tested compounds were performed in three separate wells of the microtiter plates and in three separate experiments. The results were reported as a ratio to the control value, untreated cells. IC50 values were also determined using Microsoft Office Excel 2021. The percentage of viable cells was estimated by dividing the readout absorbance value in the wells containing treated cells by the average absorbance value measured in the wells containing untreated cells, and multiplying the result by 100 [44]. % of the viable cells = ((absorbance of treated cell-absorbance of blank)/(absorbance of untreated cell-absorbance of blank)) × 100(3)

COX-2 = target: T1, COX-2 (Homo sapiens, UniProt P35354); test: Fluorometric COX-2 inhibitor screening kit; format: biochemical; settings: mean of two measurements with standard error, read-out: COX-2 Percent of Inhibition
T1 construct: purchased Abcam
T1 sequence (P35354 18-604): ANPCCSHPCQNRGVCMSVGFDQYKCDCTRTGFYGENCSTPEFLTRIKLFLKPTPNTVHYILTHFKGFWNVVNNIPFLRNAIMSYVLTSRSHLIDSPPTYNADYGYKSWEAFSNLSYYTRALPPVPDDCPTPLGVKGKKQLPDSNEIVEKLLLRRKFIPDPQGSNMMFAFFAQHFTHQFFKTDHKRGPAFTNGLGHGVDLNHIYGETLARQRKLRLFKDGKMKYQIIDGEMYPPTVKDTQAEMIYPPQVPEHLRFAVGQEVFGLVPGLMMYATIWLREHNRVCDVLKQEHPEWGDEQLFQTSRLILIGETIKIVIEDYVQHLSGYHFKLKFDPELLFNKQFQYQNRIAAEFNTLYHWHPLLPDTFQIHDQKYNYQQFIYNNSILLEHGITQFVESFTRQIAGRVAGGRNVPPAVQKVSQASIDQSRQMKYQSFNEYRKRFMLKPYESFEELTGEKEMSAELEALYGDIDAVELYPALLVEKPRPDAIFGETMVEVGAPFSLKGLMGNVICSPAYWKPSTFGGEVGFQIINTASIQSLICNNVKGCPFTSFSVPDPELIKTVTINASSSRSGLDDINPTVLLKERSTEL
Description: The COX-2 and 5-LOX inhibitory potential of the tested compounds was evaluated using a fluorometric COX-2 and 5-LOX inhibitor screening kit (Abcam, Cambridge, UK). These tests are based on determining the presence of prostaglandin G2 (a product of COX enzyme activity) or an intermediate generated by the enzyme 5-LOX, using fluorometric detection. The mentioned experiments were performed according to the manufacturer’s instructions.
For the determination of COX-2 inhibitory potential of tested compounds, stock solutions (5 mM in DMSO) were diluted with the same solvent (test solutions). The test solutions were further diluted with COX assay buffer by mixing 2 µL of the corresponding test solution and 8 µL of COX assay buffer. For the preparation of inhibitory control (IC), celecoxib (2 µL) and COX assay buffer (8 µL) were mixed. Solvent control (SC) was prepared by mixing DMSO (2 µL) and the COX assay buffer (8 µL), enzyme control (EC) was 10 µL of COX assay buffer, while the samples (S) were 10 µL of diluted test solutions. IC, SC, EC, and S were transferred into corresponding wells. For the determination of 5-LOX inhibitory potential of tested compounds, stock solutions of the same concentration (5 mM) were prepared in DMSO. These solutions were further diluted with the same solvent to obtain the test solutions, which were added into the appropriate wells (2 µL). EC, SC, and IC were prepared by adding 2 µL of the assay buffer, DMSO, and zileuton into corresponding wells, respectively.
The fluorescence of the samples was measured kinetically at 25 °C (COX-2: Ex/Em = 535/587 nm, during 10 min; 5-LOX: Ek/Em = 500/536 nm during 20 min) using a Synergi LX multi-mode microplate reader (BioTek, Shoreline, WA, USA).

healthy male rats = test: Acute oral toxicity assessment (OECD Guidelines No. 423); format: in vivo, rat; settings: single per os dose 10 mg/kg, sacrifice after 14 days, (absolute organ weight × 100%)/body weight
Description: The acute oral toxicity was assessed in healthy male rats (n = 24, three rats per group, body weight 180–200 g) according to a previously established protocol and the OECD Guidelines No. 423 [37, 38].
Animals were randomly assigned to the following groups: control group—rats that received single dose of 1% DMSO and experimental groups—rats that received compounds 8–14 per os in the single dose of 10 mg/kg dissolved in 1% DMSO. All rats were fasted prior to administration of compounds and during 3 h following the treatment.
Afterwards, rats were kept in single cages and observed once daily during 14 days for clinical signs of toxicity. All behavioral changes and any signs of toxicity were recorded (fur and skin, urination (color), feces consistency, eyes, salivation, any alterations in behavior pattern). Additionally, food and water intake and the body weight were measured daily over 14 days. After accomplishing the monitoring period, rats were sacrificed, and organ weight (liver, kidney, stomach, and heart) was recorded. Relative organ weight was calculated as follows: (absolute organ weight × 100%)/body weight of rat on the day of sacrifice(1)

Row | SMILES | Cytotoxic effect against HeLa cells (in words) (HeLa) | IC50 (HeLa; 72 h) [µM] | IC50 (HeLa; Homo sapiens, HeLa, 24 h) [µM] | IC50 (HeLa; Homo sapiens, HeLa, 48 h) [µM] | IC50 (HeLa; Homo sapiens, HeLa, 72 h) [µM] | inhibition at 10 µM (COX-2) [%] | Relative organ weight, Heart (healthy male rats) | Relative organ weight, Kidney (healthy male rats) | Relative organ weight, Liver (healthy male rats) | Relative organ weight, Stomach (healthy male rats)
1 | COc1ccc2cc([C@H](C)C(=O)NC(=S)Nc3ccccc3)ccc2c1 [Compound 8, (S)-2-(6-methoxynaphthalen-2-yl)-N-(phenylcarbamothioyl)propanamide] | strong cytotoxic effects | 9.1 ± 2.5 | > 140 | 97.6 ± 10.9 | 9 ± 2 | 36.2 ± 16.4 | 0.31 ± 0.01 | 0.32 ± 0.02 | 2.65 ± 0.15 | 0.51 ± 0.06
2 | COc1ccc2cc([C@H](C)C(=O)NC(=S)Nc3ccc(C)cc3)ccc2c1 [Compound 9, (S)-2-(6-methoxynaphthalen-2-yl)-N-(p-tolylcarbamothioyl)propanamide] | – | – | > 200 | > 200 | 120 ± 8.7 | 26.8 ± 6.07 | 0.29 ± 0.03 | 0.29 ± 0.03 | 3.01 ± 0.27 | 0.56 ± 0.03
3 | COc1ccc2cc([C@H](C)C(=O)NC(=S)Nc3ccccc3C)ccc2c1 [Compound 10, (S)-2-(6-methoxynaphthalen-2-yl)-N-(o-tolylcarbamothioyl)propanamide] | moderate cytotoxic effect | – | > 200 | 111 ± 8.3 | 85.3 ± 9.1 | 12.6 ± 4.99 | 0.34 ±0.04 | 0.31 ± 0.04 | 2.67 ± 0.15 | 0.58 ± 0.04
4 | COc1ccc2cc([C@H](C)C(=O)NC(=S)Nc3ccccc3OC)ccc2c1 [Compound 11, (S)-2-(6-methoxynaphthalen-2-yl)-N-((2-methoxyphenyl)carbamothioyl)propanamide] | – | – | > 200 | > 200 | > 200 | 16.2 ± 13.7 | 0.32 ± 0.02 | 0.33 ± 0.05 | 2.83 ± 0.20 | 0.54 ± 0.05
5 | COc1ccc2cc([C@H](C)C(=O)NC(=S)Nc3ccccc3F)ccc2c1 [Compound 12, (S)-N-((2-fluorophenyl)carbamothioyl)-2-(6-methoxynaphthalen-2-yl)propanamide] | moderate cytotoxic effect | – | 135 ± 16.8 | 103 ± 9.5 | 72.8 ± 6.9 | 13.8 ± 6.41 | 0.35 ± 0.03 | 0.32 ± 0.04 | 2.76 ± 0.36 | 0.59 ± 0.05
6 | COC(=O)[C@H](Cc1ccccc1)NC(=S)NC(=O)[C@@H](C)c1ccc2cc(OC)ccc2c1 [Compound 13, Methyl (((S)-2-(6-methoxynaphthalen-2-yl)propanoyl)carbamothioyl)phenylalaninate] | – | – | > 200 | > 200 | > 200 | 23.1 ± 9.83 | 0.30 ± 0.04 | 0.28 ± 0.06 | 3.09 ± 0.27 | 0.50 ± 0.06
7 | COC(=O)[C@H](Cc1c[nH]c2ccccc12)NC(=S)NC(=O)[C@@H](C)c1ccc2cc(OC)ccc2c1 [Compound 14, Methyl (((S)-2-(6-methoxynaphthalen-2-yl)propanoyl)carbamothioyl)tryptophanate] | – | – | > 200 | 151 ± 14.2 | 110 ± 11.5 | 29.8 ± 12.1 | 0.31 ± 0.02 | 0.29 ± 0.04 | 2.03 ± 0.42 | 0.53 ± 0.04
